Test results published in ChEMBL document CHEMBL1201862, “PubChem BioAssay data set” (2004).
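Method: 48-hour compound exposure of cells in 96-well plates, five concentrations, linear interpolation of endpoints. The concentration for 50% growth inhibition is given as GI50.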 Activity calls are given as the source filed them. Cut-off read from the data, not from the text of the source: active = GI50 up to about 1.1 µM and inactive = higher.

How the values were obtained:
Experiment in all cases: NCI tumour cell line growth inhibition, 48 h
A498 = tested on: A498
A549 = tested on: A549
CAKI-1 = tested on: CAKI-1
CCRF-CEM = tested on: CCRF-CEM
COLO 205 = tested on: COLO 205
DLD-1 = tested on: DLD-1
DMS-114 = tested on: DMS-114
DMS-273 = tested on: DMS-273
EKVX = tested on: EKVX
HCC 2998 = tested on: HCC 2998
HCT-116 = tested on: HCT-116
HCT-15 = tested on: HCT-15
HL-60 = tested on: HL-60
HOP-18 = tested on: HOP-18
HOP-62 = tested on: HOP-62
HOP-92 = tested on: HOP-92
HT-29 = tested on: HT-29
IGROV-1 = tested on: IGROV-1
K562 = tested on: K562
KM-20L2 = tested on: KM-20L2
KM12 = tested on: KM12
LOX IMVI = tested on: LOX IMVI
M19-MEL = tested on: M19-MEL
MCF7 = tested on: MCF7
MOLT-4 = tested on: MOLT-4
Malme-3M = tested on: Malme-3M
NCI-H226 = tested on: NCI-H226
NCI-H23 = tested on: NCI-H23
NCI-H460 = tested on: NCI-H460
NCI-H522 = tested on: NCI-H522
NCI/ADR-RES = tested on: NCI/ADR-RES
OVCAR-3 = tested on: OVCAR-3
OVCAR-4 = tested on: OVCAR-4
OVCAR-5 = tested on: OVCAR-5
OVCAR-8 = tested on: OVCAR-8
RPMI-8226 = tested on: RPMI-8226
RXF 393 = tested on: RXF 393
SF-268 = tested on: SF-268
SF-295 = tested on: SF-295
SF-539 = tested on: SF-539
SK-MEL-28 = tested on: SK-MEL-28
SK-MEL-2 = tested on: SK-MEL-2
SK-MEL-5 = tested on: SK-MEL-5
SK-OV-3 = tested on: SK-OV-3
SN12C = tested on: SN12C
SNB-19 = tested on: SNB-19
SNB-75 = tested on: SNB-75
SNB-78 = tested on: SNB-78
SW-620 = tested on: SW-620
U-251 = tested on: U-251
UACC-257 = tested on: UACC-257
UACC-62 = tested on: UACC-62
UO-31 = tested on: UO-31
XF498 = tested on: XF498
786-0 = tested on: 786-0
ACHN = tested on: ACHN
LXFL 529 = tested on: LXFL 529
M14 = tested on: M14
TK-10 = tested on: TK-10

SMILES: C[N+](C)(C)CCOC(=O)/C=C/c1c[nH]cn1
- GI50 (A498): > 500 µM (inactive)
- GI50 (A549): > 500 µM (inactive)
- GI50 (CAKI-1): > 500 µM (inactive)
- GI50 (CCRF-CEM): > 500 µM (inactive)
- GI50 (COLO 205): > 500 µM (inactive)
- GI50 (DLD-1): > 500 µM (inactive)
- GI50 (DMS-114): > 500 µM (inactive)
- GI50 (DMS-273): > 500 µM (inactive)
- GI50 (EKVX): > 500 µM (inactive)
- GI50 (HCC 2998): > 500 µM (inactive)
- GI50 (HCT-116): > 500 µM (inactive)
- GI50 (HCT-15): > 500 µM
- GI50 (HL-60): > 500 µM (inactive)
- GI50 (HOP-18): > 500 µM (inactive)
- GI50 (HOP-62): > 500 µM (inactive)
- GI50 (HOP-92): 492 µM (inactive)
- GI50 (HT-29): > 500 µM (inactive)
- GI50 (IGROV-1): > 500 µM (inactive)
- GI50 (K562): > 500 µM (inactive)
- GI50 (KM-20L2): > 500 µM (inactive)
- GI50 (KM12): > 500 µM (inactive)
- GI50 (LOX IMVI): > 500 µM (inactive)
- GI50 (M19-MEL): > 500 µM (inactive)
- GI50 (MCF7): > 500 µM (inactive)
- GI50 (MOLT-4): > 316 µM (inactive)
- GI50 (Malme-3M): > 500 µM (inactive)
- GI50 (NCI-H226): > 500 µM (inactive)
- GI50 (NCI-H23): > 500 µM (inactive)
- GI50 (NCI-H460): > 500 µM (inactive)
- GI50 (NCI-H522): > 500 µM (inactive)
- GI50 (NCI/ADR-RES): > 500 µM (inactive)
- GI50 (OVCAR-3): > 500 µM (inactive)
- GI50 (OVCAR-4): > 500 µM (inactive)
- GI50 (OVCAR-5): > 356 µM (inactive)
- GI50 (OVCAR-8): > 500 µM (inactive)
- GI50 (RPMI-8226): > 500 µM (inactive)
- GI50 (RXF 393): > 500 µM (inactive)
- GI50 (SF-268): > 500 µM (inactive)
- GI50 (SF-295): > 500 µM (inactive)
- GI50 (SF-539): > 500 µM (inactive)
- GI50 (SK-MEL-28): > 500 µM (inactive)
- GI50 (SK-MEL-2): > 500 µM (inactive)
- GI50 (SK-MEL-5): > 500 µM (inactive)
- GI50 (SK-OV-3): > 500 µM (inactive)
- GI50 (SN12C): > 500 µM (inactive)
- GI50 (SNB-19): > 500 µM (inactive)
- GI50 (SNB-75): > 500 µM (inactive)
- GI50 (SNB-78): > 500 µM (inactive)
- GI50 (SW-620): > 500 µM (inactive)
- GI50 (U-251): > 500 µM (inactive)
- GI50 (UACC-257): > 500 µM (inactive)
- GI50 (UACC-62): > 500 µM (inactive)
- GI50 (UO-31): > 500 µM (inactive)
- GI50 (XF498): > 500 µM (inactive)

SMILES: CCCN1CN(C(C(=O)N[C@@H]2C(=O)N3C2SC(C)(C)C3C(=O)O)c2ccc(O)cc2)CSC1=S (stereo not given in full)
- GI50 (786-0): > 100 µM (inactive)
- GI50 (A498): > 100 µM (inactive)
- GI50 (ACHN): > 100 µM (inactive)
- GI50 (CAKI-1): > 100 µM (inactive)
- GI50 (CCRF-CEM): > 100 µM (inactive)
- GI50 (COLO 205): 29.8 µM (inactive)
- GI50 (DLD-1): 52.8 µM (inactive)
- GI50 (DMS-114): 19.1 µM (inactive)
- GI50 (DMS-273): > 100 µM (inactive)
- GI50 (EKVX): > 100 µM (inactive)
- GI50 (HCT-116): > 100 µM (inactive)
- GI50 (HCT-15): > 100 µM
- GI50 (HL-60): > 100 µM (inactive)
- GI50 (HOP-18): > 100 µM (inactive)
- GI50 (HOP-62): > 100 µM (inactive)
- GI50 (HOP-92): > 100 µM (inactive)
- GI50 (HT-29): > 100 µM (inactive)
- GI50 (IGROV-1): > 100 µM (inactive)
- GI50 (K562): 24.4 µM (inactive)
- GI50 (KM-20L2): > 100 µM (inactive)
- GI50 (KM12): > 100 µM (inactive)
- GI50 (LOX IMVI): 97.9 µM (inactive)
- GI50 (LXFL 529): 61.4 µM (inactive)
- GI50 (M14): > 100 µM (inactive)
- GI50 (M19-MEL): > 100 µM (inactive)
- GI50 (MOLT-4): > 100 µM (inactive)
- GI50 (Malme-3M): > 100 µM (inactive)
- GI50 (NCI-H23): > 100 µM (inactive)
- GI50 (NCI-H460): > 100 µM (inactive)
- GI50 (NCI-H522): 22.6 µM (inactive)
- GI50 (OVCAR-3): 23.6 µM (inactive)
- GI50 (OVCAR-4): > 100 µM (inactive)
- GI50 (OVCAR-5): > 100 µM (inactive)
- GI50 (OVCAR-8): > 100 µM (inactive)
- GI50 (RPMI-8226): 62.1 µM (inactive)
- GI50 (SF-268): > 100 µM (inactive)
- GI50 (SF-295): > 100 µM (inactive)
- GI50 (SF-539): > 100 µM (inactive)
- GI50 (SK-MEL-28): > 100 µM (inactive)
- GI50 (SK-MEL-2): > 100 µM (inactive)
- GI50 (SK-MEL-5): > 100 µM (inactive)
- GI50 (SK-OV-3): > 100 µM (inactive)
- GI50 (SN12C): > 100 µM (inactive)
- GI50 (SNB-19): > 100 µM (inactive)
- GI50 (SNB-75): > 100 µM (inactive)
- GI50 (TK-10): > 100 µM (inactive)
- GI50 (U-251): > 100 µM (inactive)
- GI50 (UACC-257): > 100 µM (inactive)
- GI50 (UACC-62): > 100 µM (inactive)
- GI50 (UO-31): > 100 µM (inactive)
- GI50 (XF498): > 100 µM (inactive)
